These results are taken from PubChem BioAssay (NCI).

Some test systems named below: U251 CNS; RXF 393 renal; NCI/ADR-RES ovarian; KM12 colon; COLO 205 colon; 786-0 renal; NCI-H23 lung; A549 NSCLC; LOX IMVI melanoma; SF-268 CNS.
Assay in all cases: inhibition of tumour cell growth, NCI panel, 48 h

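Exposure lasted 48 hours, with cells grown in 96-well plates and compounds tested at five concentrations. The concentration for full growth arrest is given as TGI.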 *1 amine or outer side, *2 acyl side, *3 side chain or, on linkers, in order; H or OH if unused. Where a SMILES comes first, the peptide text is derived from it. Bridges are numbered along the chain shown (N, C = ends). Roman numbers before positions name the chains, in order. [ ]: non-standard residue; d: D form. Actinocin(9to1) = Cc1c2oc3c(C)ccc(C(=O)[*:1])c3nc-2c(C(=O)[*:2])c(N)c1=O; NMeV = CN[CH](C(=O)O)C(C)C; Sar = CNCC(=O)O A value given as a limit tells only on which side of the number the result lay.

Turning to `C[C@]12[C@@H]3CC[C@H]1[C@@H](O)C(=O)N2CC3`, the TGI with U251 CNS, with RXF 393 renal, in the experiment with NCI/ADR-RES ovarian, in the experiment with KM12 colon, with COLO 205 colon and with 786-0 renal was > 100 µM each time. Also, the TGI in the experiment with NCI-H23 lung, in the experiment on A549 NSCLC, in the experiment with LOX IMVI melanoma and in the experiment with SF-268 CNS was > 100 µM throughout.
With `Cc1c2oc3c(C)ccc(C(=O)NC4C(=O)NC(C(C)C)C(=O)N5CCCC5C(=O)N(C)CC(=O)N(C)C(C(C)C)C(=O)OC4C)c3nc-2c(C(=O)NC2C(=O)NC(C(C)C)C(=O)N3CCCC3C(=O)N(C)CC(=O)N(C)C(C(C)C)C(=O)OC2C)c(N)c1=O` (stereo not given) (I: TVP[Sar][NMeV] / II: TVP[Sar][NMeV]; ester I:1-I:C, II:1-II:C; linker I:N-II:N via Actinocin(9to1); configuration not given here), the TGI was 0.00653 µM in the experiment with RXF 393 renal; > 1 µM with NCI/ADR-RES ovarian; 0.019 µM with KM12 colon; 0.00299 µM in the experiment with COLO 205 colon; > 1 µM in the experiment with 786-0 renal; 0.00481 µM in the experiment on NCI-H23 lung. Further, the values for the TGI in the experiment on A549 NSCLC and in the experiment with SF-268 CNS were > 0.867 µM and 0.0269 µM, respectively.
Turning to `Cc1ccc(-[n+]2cc([O-])on2)cc1`, the TGI with U251 CNS, with RXF 393 renal, with NCI/ADR-RES ovarian, in the experiment with KM12 colon, in the experiment with 786-0 renal and with NCI-H23 lung was > 100 µM each time. Further, the TGI in the experiment on A549 NSCLC, with LOX IMVI melanoma and with SF-268 CNS was > 100 µM throughout.
On to `C(=C/CCCN1O[C@@H](CCCCCCCCc2cccnc2)[C@H]2CCC[C@H]21)/CCCCCCCCCc1cccnc1`, for which the TGI worked out at 34.5 µM in the experiment on U251 CNS; 32.9 µM in the experiment with RXF 393 renal; 88.5 µM with NCI/ADR-RES ovarian; 58.7 µM in the experiment on KM12 colon; 30.9 µM in the experiment with COLO 205 colon; 37 µM in the experiment with 786-0 renal. The TGI in the experiment with NCI-H23 lung is 61.7 µM; with A549 NSCLC, 47.2 µM; in the experiment on LOX IMVI melanoma, 35.3 µM; in the experiment on SF-268 CNS it was 63.7 µM.
Turning to `CC(N)/C(N)=N/O` (stereo not given), the TGI with U251 CNS, in the experiment with RXF 393 renal, in the experiment with NCI/ADR-RES ovarian, with KM12 colon, in the experiment on COLO 205 colon and in the experiment on 786-0 renal was > 100 µM throughout. The TGI in the experiment on NCI-H23 lung, with A549 NSCLC, with LOX IMVI melanoma and in the experiment on SF-268 CNS was > 100 µM each time.
On to `O=C1/C(=C\c2ccc(Cl)cc2Cl)Sc2scc(-c3ccc(O)c(O)c3)[n+]21`, for which the TGI worked out at 25.5 µM in the experiment on U251 CNS; 37.1 µM in the experiment on RXF 393 renal; 35.6 µM with NCI/ADR-RES ovarian; 33.9 µM with KM12 colon; 40.5 µM with COLO 205 colon; 31.6 µM in the experiment with 786-0 renal. Also, the TGI was 31.3 µM with NCI-H23 lung, 44.1 µM with A549 NSCLC, 40.8 µM with LOX IMVI melanoma and > 100 µM in the experiment on SF-268 CNS.
Regarding `O=C(C(=O)n1ccc2ccccc21)n1ccc2ccccc21`, the TGI in the experiment with U251 CNS, in the experiment with RXF 393 renal, in the experiment with NCI/ADR-RES ovarian, in the experiment with COLO 205 colon, in the experiment with 786-0 renal and with NCI-H23 lung was > 100 µM each time. In addition, the TGI in the experiment on A549 NSCLC, with LOX IMVI melanoma and in the experiment with SF-268 CNS was > 100 µM in each case.
`CCCCCCc1cc2cc(-c3cn4ccsc4n3)c(=O)oc2cc1O`: the TGI in the experiment with U251 CNS was > 100 µM; with RXF 393 renal, > 94.8 µM; in the experiment on NCI/ADR-RES ovarian it was > 100 µM; in the experiment on KM12 colon, > 100 µM; with COLO 205 colon, > 100 µM; in the experiment with 786-0 renal, > 100 µM. Moreover, the TGI in the experiment on NCI-H23 lung is > 100 µM; in the experiment with A549 NSCLC, > 100 µM; with LOX IMVI melanoma, > 100 µM; in the experiment with SF-268 CNS it was > 89.7 µM.
In the case of `CC1(C)[C@@H](Cn2cc(I)c(=O)[nH]c2=O)CC[C@@]1(C)CO`, the TGI in the experiment on U251 CNS, with RXF 393 renal, in the experiment on NCI/ADR-RES ovarian, in the experiment with KM12 colon, with COLO 205 colon and with 786-0 renal was > 100 µM throughout. Also, the TGI in the experiment with A549 NSCLC, in the experiment on LOX IMVI melanoma and in the experiment on SF-268 CNS was > 100 µM in each case.
For `CC(=O)CC1CCC(=O)/C=C/C(=O)OC(CC(C)=O)CCC(=O)/C=C/C(=O)O1` (stereo not given), the TGI in the experiment with U251 CNS was found to be 42.8 µM; in the experiment with RXF 393 renal, 8.55 µM; in the experiment with NCI/ADR-RES ovarian, 53.2 µM; in the experiment on KM12 colon, 42.8 µM; with COLO 205 colon, 3.4 µM; in the experiment on 786-0 renal, 10.6 µM. In addition, the TGI was found to be 36.4 µM with NCI-H23 lung, 43 µM in the experiment on A549 NSCLC, 35.1 µM in the experiment with LOX IMVI melanoma and 74 µM in the experiment on SF-268 CNS.
As to `COC(=O)CC(C)(NS(=O)c1ccc(C)cc1)c1ccccc1` (stereo not given), the TGI in the experiment with U251 CNS, in the experiment on RXF 393 renal, in the experiment on NCI/ADR-RES ovarian, in the experiment on KM12 colon, in the experiment with COLO 205 colon and in the experiment with 786-0 renal was > 100 µM in each case. The TGI in the experiment on NCI-H23 lung, in the experiment on A549 NSCLC, with LOX IMVI melanoma and in the experiment with SF-268 CNS was > 100 µM each time.
`CCOC(=O)c1ccc(-c2cc(C)no2)[nH]1`: the TGI with U251 CNS, with RXF 393 renal, in the experiment with NCI/ADR-RES ovarian, with KM12 colon, in the experiment on COLO 205 colon and with 786-0 renal was > 100 µM each time. Moreover, the TGI with NCI-H23 lung, with A549 NSCLC, with LOX IMVI melanoma and with SF-268 CNS was > 100 µM throughout.
With `N#CSC#CCCC#CSC#N`, the TGI with U251 CNS stood at 30.5 µM; in the experiment on RXF 393 renal, 35.7 µM; in the experiment on NCI/ADR-RES ovarian it was 74.9 µM; in the experiment with KM12 colon it was 34.9 µM; in the experiment with COLO 205 colon, 26.7 µM; in the experiment with 786-0 renal, 40.4 µM. Besides, the TGI was 42.1 µM in the experiment with NCI-H23 lung, 42 µM in the experiment with A549 NSCLC, 40.5 µM in the experiment with LOX IMVI melanoma and > 100 µM in the experiment with SF-268 CNS.
